Test systems include A498; A549; BT-549; DU-145; HL-60; HOP-62; KM12; MCF7; OVCAR-3; OVCAR-5; PC-3; SF-268; SK-MEL-28; SNB-75; T47D; UACC-62; HCC 2998.
Test in all cases: NCI tumour cell line growth inhibition, 48 h

We go through 13 molecules from ChEMBL document CHEMBL1201862, “PubChem BioAssay data set” (2004).

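Grown in 96-well plates, cells were treated for 48 hours with each compound at five concentrations. Insufficient inhibition: endpoint recorded as highest concentration tested. GI50 = concentration required for 50% inhibition of growth.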 Activity calls are given as the source filed them. Cut-off read from the data, not from the text of the source: active = GI50 up to about 1.1 µM and inactive = higher.

Turning to `O=C(O)Cc1ccc([N+](=O)[O-])cc1[N+](=O)[O-]`, the GI50 in the assay with A498, in the assay with A549, in the assay with BT-549, in the assay on DU-145, in the assay on HL-60 and in the assay on HOP-62 was > 100 µM (inactive) each time. Also, the GI50 with KM12, in the assay on MCF7, in the assay on OVCAR-3, in the assay on OVCAR-5, in the assay with PC-3 and in the assay with SF-268 was > 100 µM (inactive) each time. The GI50 with SK-MEL-28, in the assay with SNB-75, in the assay with T47D and with UACC-62 was > 100 µM (inactive) each time.

As to `CN(C)CCCc1cccc2[nH]c3c(c12)CN(C)CC3`, the GI50 in the assay on A549 was > 100 µM (inactive); with BT-549, 81.7 µM (inactive); in the assay on DU-145 it was > 100 µM (inactive); with HCC 2998 it was > 100 µM (inactive); with HL-60, 56.9 µM (inactive); with HOP-62, 56.5 µM (inactive). Besides, the GI50 was > 100 µM (inactive) in the assay on KM12; > 100 µM (inactive) in the assay with MCF7; > 100 µM (inactive) with OVCAR-3; > 100 µM (inactive) in the assay on OVCAR-5; 67.1 µM (inactive) with PC-3; > 100 µM (inactive) in the assay on SF-268. In addition, the GI50 with SK-MEL-28 was > 100 µM (inactive); in the assay on SNB-75 it was 78 µM (inactive); in the assay on T47D, > 100 µM (inactive); with UACC-62, > 100 µM (inactive).

On to `O=c1[nH]nc(-c2ccccc2)n1/N=C/c1ccccc1O`, for which the GI50 in the assay with A498 is 34.1 µM (inactive); in the assay with A549, > 100 µM (inactive); in the assay with BT-549 it was > 100 µM (inactive); in the assay with DU-145, > 100 µM (inactive); in the assay with HCC 2998, > 100 µM (inactive); with KM12 it was 47 µM (inactive). Also, the GI50 in the assay on MCF7 was > 100 µM (inactive); in the assay with OVCAR-3 it was 59.4 µM (inactive); with OVCAR-5 it was > 100 µM (inactive); in the assay with PC-3 it was 89.9 µM (inactive); with SF-268, 80.2 µM (inactive); with T47D it was > 100 µM (inactive). In addition, the GI50 with UACC-62 is 81.1 µM (inactive).

On to `CN(Cc1cccc2ccsc12)/N=C\c1ccc(Cl)cc1`, for which the GI50 was 93.3 µM (inactive) in the assay on A498; 30.4 µM (inactive) with A549; > 100 µM (inactive) in the assay with BT-549; > 100 µM (inactive) in the assay on DU-145; 49.3 µM (inactive) with HCC 2998; > 100 µM (inactive) with HOP-62. The GI50 with KM12 is 58.5 µM (inactive); with MCF7 it was 32.7 µM (inactive); with OVCAR-3, 10.6 µM (inactive); in the assay with OVCAR-5, > 100 µM (inactive); in the assay on PC-3, > 100 µM (inactive); in the assay on SF-268 it was > 100 µM (inactive). The GI50 in the assay on SK-MEL-28 is > 100 µM (inactive); in the assay on SNB-75 it was 57.1 µM (inactive); in the assay on T47D, 49.5 µM (inactive); with UACC-62, > 100 µM (inactive).

Regarding `COc1cc2c(cc1OC)CCc1cc(OC)c(OC)cc1CC2`, the GI50 in the assay with A498, in the assay on A549, with BT-549, in the assay on DU-145, with HCC 2998 and in the assay on HOP-62 was > 100 µM (inactive) each time. In addition, the GI50 in the assay with KM12, in the assay on MCF7, in the assay with OVCAR-3, in the assay on OVCAR-5, with PC-3 and in the assay with SK-MEL-28 was > 100 µM (inactive) throughout. Also, the GI50 is > 100 µM (inactive) with SNB-75, 31.3 µM (inactive) in the assay on T47D and > 100 µM (inactive) with UACC-62.

Take `C[N+](C)([O-])Cc1cccc(NC(=O)c2ccc(C(=O)Nc3cccc(C[N+](C)(C)[O-])c3)cc2)c1`: the GI50 with A549, in the assay on BT-549, in the assay on DU-145, in the assay with HCC 2998, in the assay on HL-60 and in the assay with HOP-62 was > 100 µM (inactive) each time. Also, the GI50 in the assay with KM12, in the assay with MCF7, with OVCAR-3, in the assay with OVCAR-5, with PC-3 and in the assay with SF-268 was > 100 µM (inactive) throughout. Besides, the GI50 in the assay on SK-MEL-28, in the assay with T47D and in the assay on UACC-62 was > 100 µM (inactive) in each case.

Take `O=C1/C(=C/c2ccc(Cl)cc2)CSC/C1=C\c1ccc(Cl)cc1`: the GI50 in the assay with A549 is 4.08 µM (inactive); in the assay with BT-549, 2.21 µM (inactive); in the assay on DU-145, 5.87 µM (inactive); in the assay on HCC 2998 it was 2.07 µM (inactive); with HL-60 it was 1.34 µM (inactive); in the assay with HOP-62, 4.74 µM (inactive). For the same molecule, the GI50 with KM12 is 1.96 µM (inactive); in the assay on MCF7, 2.72 µM (inactive); with OVCAR-3, 2.93 µM (inactive); in the assay on OVCAR-5, 2.19 µM (inactive); in the assay on PC-3 it was 3.52 µM (inactive); with SF-268, 5.96 µM (inactive). Further, the GI50 in the assay on SK-MEL-28 was 1.87 µM (inactive); in the assay on T47D, 6.89 µM (inactive); with UACC-62, 1.51 µM (inactive).

On to `COc1cc2c(cc1O)NC(=O)[C@@H]1CCCN1C2=O`, for which the GI50 in the assay with A498, in the assay with A549, in the assay on BT-549, in the assay with DU-145, with HCC 2998 and in the assay with HOP-62 was > 100 µM (inactive) throughout. The GI50 with KM12, in the assay on MCF7, in the assay with OVCAR-3, in the assay with OVCAR-5, with PC-3 and with SF-268 was > 100 µM (inactive) each time. For the same molecule, the GI50 in the assay on SK-MEL-28, in the assay on SNB-75, with T47D and in the assay on UACC-62 was > 100 µM (inactive) in each case.

Consider `C=CCn1c(-c2ccc(/N=N/Nc3ccc(-c4n[nH]c(=S)n4CC=C)cc3)cc2)n[nH]c1=S`, for which the GI50 is > 100 µM (inactive) in the assay with A498; 3.52 µM (inactive) with A549; 2.3 µM (inactive) with BT-549; 3.65 µM (inactive) in the assay with DU-145; 3.4 µM (inactive) in the assay with HOP-62; 3.04 µM (inactive) with KM12. The GI50 in the assay with MCF7 was 3.69 µM (inactive); with OVCAR-3 it was 2.52 µM (inactive); in the assay with OVCAR-5, 28 µM (inactive); in the assay with PC-3, 3.17 µM (inactive); with SF-268, 5.06 µM (inactive); in the assay with SK-MEL-28, 6.9 µM (inactive). The results for the GI50 in the assay with SNB-75 and in the assay on T47D were 3.93 µM (inactive) and 1.11 µM (active), respectively.

Take `COc1ccc(CNC(=O)[C@H](Cc2ccc(O)cn2)NC(C)=O)cc1`: the GI50 with A498, in the assay with A549, in the assay on BT-549, with DU-145, in the assay with HCC 2998 and in the assay with HL-60 was > 100 µM (inactive) in each case. Besides, the GI50 with HOP-62, with KM12, in the assay with MCF7, in the assay on OVCAR-3, in the assay with OVCAR-5 and in the assay on PC-3 was > 100 µM (inactive) throughout. For the same molecule, the GI50 in the assay on SF-268, with SK-MEL-28, with T47D and in the assay on UACC-62 was > 100 µM (inactive) in each case.

`CN(C)C1C(O)=C(C(=O)NCN2CCCC2)C(=O)C2(O)C(O)=C3C(=O)c4c(O)cccc4C(C)(O)C3CC12` (stereo not given): the GI50 is > 100 µM (inactive) in the assay on A498; 69.3 µM (inactive) in the assay with A549; > 100 µM (inactive) with BT-549; 62.2 µM (inactive) in the assay with DU-145; > 100 µM (inactive) in the assay on HL-60; > 100 µM (inactive) with HOP-62. The GI50 in the assay on KM12 is > 100 µM (inactive); in the assay with MCF7 it was 54.6 µM (inactive); in the assay with OVCAR-3, > 100 µM (inactive); with OVCAR-5, > 100 µM (inactive); in the assay on PC-3, > 100 µM (inactive); in the assay on SF-268 it was > 100 µM (inactive). The GI50 in the assay on SK-MEL-28 is > 100 µM (inactive); in the assay on SNB-75, 52.4 µM (inactive); in the assay with T47D, > 100 µM (inactive); with UACC-62, > 100 µM (inactive).

Turning to `CN(C)C1C(CO)OC(n2cnc3c(N)ncnc32)C1O` (stereo not given), the GI50 in the assay with A498, in the assay on A549, in the assay with BT-549, in the assay on DU-145, in the assay with HL-60 and in the assay with HOP-62 was > 100 µM (inactive) throughout. Besides, the GI50 in the assay with KM12, in the assay with MCF7, in the assay with OVCAR-3, in the assay on OVCAR-5, with PC-3 and with SF-268 was > 100 µM (inactive) throughout. In addition, the GI50 in the assay on SK-MEL-28, with SNB-75, with T47D and in the assay on UACC-62 was > 100 µM (inactive) each time.

On to `Cc1cc(OCc2nnc3n2S(=O)(=O)c2ccccc2N3C)ccc1Cl`, for which the GI50 was 24.6 µM (inactive) in the assay with A498; 44.9 µM (inactive) with A549; 18.2 µM (inactive) in the assay with BT-549; 56 µM (inactive) in the assay on DU-145; > 100 µM (inactive) in the assay on HCC 2998; 21 µM (inactive) in the assay with HL-60. Besides, the GI50 in the assay with HOP-62 was 14.1 µM (inactive); with KM12, > 100 µM (inactive); in the assay with MCF7 it was 89.7 µM (inactive); with OVCAR-3 it was 19.5 µM (inactive); in the assay with OVCAR-5 it was > 100 µM (inactive); in the assay on PC-3, 95.5 µM (inactive). Besides, the GI50 with SF-268 is 16.3 µM (inactive); in the assay on SK-MEL-28 it was 86.5 µM (inactive); with T47D, 18.5 µM (inactive); with UACC-62 it was 17.2 µM (inactive).
